{"source": "patent US12216122B2", "about": "“Compositions and methods relating to detection, inhibition, and imaging of indoleamine 2,3-dioxygenase 1 (IDO1)” (Regeneron Pharmaceuticals, Inc., priority 2019, dated 2025)", "key": {"recombinant human IDO1": {"molecular_target": "T1, recombinant human IDO1 (Homo sapiens, UniProt P14902)", "T1 construct": "purchased BPS Biosciences 72037", "T1 sequence (P14902 whole entry)": "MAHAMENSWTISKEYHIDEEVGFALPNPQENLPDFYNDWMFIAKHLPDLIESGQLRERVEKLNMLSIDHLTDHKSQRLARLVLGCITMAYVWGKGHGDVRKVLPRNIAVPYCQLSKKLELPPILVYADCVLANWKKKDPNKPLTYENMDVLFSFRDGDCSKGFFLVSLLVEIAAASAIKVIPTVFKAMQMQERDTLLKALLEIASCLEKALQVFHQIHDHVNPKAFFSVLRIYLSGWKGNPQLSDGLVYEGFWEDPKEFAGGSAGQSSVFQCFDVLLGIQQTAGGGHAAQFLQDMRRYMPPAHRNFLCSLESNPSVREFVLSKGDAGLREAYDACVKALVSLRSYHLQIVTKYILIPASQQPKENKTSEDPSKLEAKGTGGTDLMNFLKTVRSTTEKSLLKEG", "test": "IDO1 Fluorogenic Inhibitor Screening Assay (enzyme inhibition)", "assay_type": "biochemical", "procedure": "The IDO1 Fluorogenic Inhibitor Screening Assay Kit (72037, BPS Biosciences) was used to measure the enzyme inhibition of human IDO1 in the presence of macrocyclic peptide ligands. IDO1 catalyzes the conversion of the essential amino acid L-tryptophan (L-Trp) to N-formylkynurenine (NFK). In the assay, the test inhibitor and enzyme were added to a sample containing L-Trp substrate. After incubation for 1 h at room temperature, 20 μL Fluorescence Solution was added and incubated at 37° C. for 4 h to produce a fluorescent product. Activity was measured by reading sample fluorescence at λ=510 nm following excitation of the reaction product at λ=400 nm."}, "[1]": {"molecular_target": "T2, His-tagged IDO1 human recombinant protein (Homo sapiens, UniProt P14902)", "T2 construct": "purchased BPS Biosciences 71182", "T2 sequence (P14902 whole entry)": "as above", "test": "IDO1 ELISA (Affinity Assay): sandwich ELISA, biotinylated ligand immobilized on NEUTRAVIDIN plate", "assay_type": "binding", "procedure": "Protocol: A black 96-well NEUTRAVIDIN® Coated High Binding Capacity plate (15510, Pierce) was coated with 2 μM biotinylated macrocyclic peptide ligand in TBS (25 mM Tris-HCl, 150 mM NaCl, pH 7.6) for 2 h at room temperature. The plate was aspirated and then washed with Wash Buffer (0.05% (v/v) TWEEN® 20 in PBS, 6×). His-tagged IDO1 human recombinant protein (71182, BPS Biosciences) was serially diluted in Wash Buffer (from 200 to 0 nM) and incubated in the designated microwells for 1 h at room temperature. Microwells were aspirated and subsequently washed with Wash Buffer (11×). To detect the bound IDO1 protein, Alkaline Phosphatase (AP)-conjugated Anti-6×HIS TAG® antibody [HIS-1] (ab49746, Abcam) was prepared at 1:10,000 dilution and added to the microwells for 1 h at room temperature. The plate was aspirated and washed with Wash Buffer (5×). ATTOPHOS® AP Fluorescent Substrate System (S1000, Promega) was employed to develop the microwells. Using an excitation wavelength of 430 nm, fluorescent emission at 535 nm was recorded by Beckman Coulter DTX880 photometer. Titration curves were fit using a four-parameter regression curve fitting program to determine EC50 values.\nFor these assays, a dilution series of His-tagged IDO1 human recombinant protein was captured using the macrocyclic peptide ligands immobilized on a NEUTRAVIDIN®-coated plate. […] The sequences of the peptide ligands are listed in Table 1, where D-amino acids are denoted in lowercase, Me-Trp=1-methyl-L-tryptophan, and F-Phe=4-fluoro-L-phenylalanine. Chemical structures are shown below Table 1.\nThe D-alanine substituted, biotin-PEG3-modified macrocycles were tested in the IDO1 ELISA (Affinity assay). For these assays, a dilution series of His-tagged IDO1 human recombinant protein was captured using macrocycles immobilized on a NEUTRAVIDIN®-coated plate."}, "[2]": {"conditions": "N-methylated heterobiligands, PEG6 linker, read-out: IC50"}, "[3]": {"conditions": "Table 15, read-out: Inhibition Recombinant IDO1 IC50"}}, "note": "Read-outs that look alike come from different tables or passages of the source. Numbered stars: 1 amine (or outer) side, 2 acyl side, 3 side chain; on linkers, the order of the positions; unused ones are H or OH. Bridge positions count the residues as written; N and C are the ends. Square brackets hold non-standard residues; d marks the D form. Triazole bridges read from a SMILES are 1,4-linked. Peptide text beside a SMILES is read from it. * marks the point of attachment. ξ: configuration not given here. NH(CH2CH2O)5CH2CO = O=C(COCCOCCOCCOCCOCCN[*:1])[*:2]; Biotinyl(4ξ) = O=C1N[C@H]2CSC(CCCCC(=O)*)[C@H]2N1; NMeLys(N3) = CN[C@@H](CCCCN=[N+]=[N-])C(=O)O; X1 = O=C(CSc1nonc1/C(=N/O)Nc1ccc(F)c(Br)c1)*; Trp(1-Me) = Cn1cc(C[C@H](N)C(=O)O)c2ccccc21; X5 = O=C1N[C@@H]2CSC(CCCCC(=O)*)[C@@H]2N1; PEG8 = NCCOCCOCCOCCOCCOCCOCCOCCOCCC(=O)O; Lys(N3) = [N-]=[N+]=NCCCC[C@H](N)C(=O)O; Phe(4-F) = N[C@@H](Cc1ccc(F)cc1)C(=O)O; PEG6 = NCCOCCOCCOCCOCCOCCOCCC(=O)O; dNMeV = CN[C@@H](C(=O)O)C(C)C; PEG4 = NCCOCCOCCOCCOCCC(=O)O; AEEEA = NCCOCCOCCOCC(=O)O; Pra = C#CC[C@H](N)C(=O)O"}
{"smiles": "CC(C)[C@H]1NC(=O)[C@@H](Cc2ccc(O)cc2)NC(=O)[C@@H](Cc2c[nH]c3ccccc23)NC(=O)[C@@H](NC(=O)CNC(=O)CNC(=O)CSc2nonc2/C(=N/O)Nc2ccc(F)c(Br)c2)Cc2cn(nn2)CCCC[C@@H](C(N)=O)NC(=O)[C@@H](Cc2ccc(O)cc2)NC(=O)[C@@H](C)NC1=O", "note": "[Deprotected-Inh-Gly2-wyvay] (X1-GG[Pra][dW][dY][dV][dA][dY][Lys(N3)]-NH2; triazole 3-9)", "values": [{"measurement": "IDO1 inhibition potency relative to the small molecule (Inh) alone, in words", "setting": "recombinant human IDO1", "value": "less active than the small molecule alone"}]}
{"smiles": "N=C(N)NCCC[C@H]1NC(=O)[C@@H](Cc2ccc(O)cc2)NC(=O)[C@@H](Cc2c[nH]c3ccccc23)NC(=O)[C@@H](NC(=O)CCOCCOCCOCCOCCNC(=O)CSc2nonc2/C(=N/O)Nc2ccc(F)c(Br)c2)Cc2cn(nn2)CCCC[C@@H](C(N)=O)NC(=O)[C@@H](Cc2ccc(O)cc2)NC1=O", "note": "[Inh-PEG4-wyry] ({X1-PEG4}-[Pra][dW][dY][dR][dY][Lys(N3)]-NH2; triazole 1-6)", "values": [{"measurement": "IDO1 inhibition potency relative to the small molecule (Inh) alone, in words", "setting": "recombinant human IDO1", "value": "equal in potency"}]}
{"smiles": "CC(C)[C@H]1NC(=O)[C@@H](Cc2ccc(O)cc2)NC(=O)[C@@H](Cc2c[nH]c3ccccc23)NC(=O)[C@@H](NC(=O)COCCOCCOCCOCCOCCNC(=O)CSc2nonc2/C(=N/O)Nc2ccc(F)c(Br)c2)Cc2cn(nn2)CCCC[C@@H](C(N)=O)NC(=O)[C@@H](Cc2ccc(O)cc2)NC(=O)[C@@H](C)NC1=O", "note": "[Inh-PEG5-wyvay] (X1-[NH(CH2CH2O)5CH2CO][Pra][dW][dY][dV][dA][dY][Lys(N3)]-NH2; triazole 2-8)", "values": [{"measurement": "IDO1 inhibition potency relative to the small molecule (Inh) alone, in words", "setting": "recombinant human IDO1", "value": "less active than the small molecule alone"}]}
{"smiles": "CC(C)[C@@H]1C(=O)N[C@H](C)C(=O)N[C@H](Cc2ccc(O)cc2)C(=O)N[C@H](C(N)=O)CCCCn2cc(nn2)C[C@H](NC(=O)CCOCCOCCOCCOCCOCCOCCNC(=O)CSc2nonc2/C(=N/O)Nc2ccc(F)c(Br)c2)C(=O)N[C@H](Cc2c[nH]c3ccccc23)C(=O)N[C@H](Cc2ccc(O)cc2)C(=O)N1C", "note": "[Inh-PEG6-wy(N-Me-v)ay] ({X1-PEG6}-[Pra][dW][dY][dNMeV][dA][dY][Lys(N3)]-NH2; triazole 1-7)", "values": [{"measurement": "IC50", "setting": "recombinant human IDO1; [2]", "value": 1460, "unit": "nM"}, {"measurement": "IC50", "setting": "recombinant human IDO1; [3]", "value": 1460, "unit": "nM"}]}
{"smiles": "CC(C)[C@H]1NC(=O)[C@@H](Cc2ccc(O)cc2)NC(=O)[C@@H](Cc2c[nH]c3ccccc23)NC(=O)[C@@H](NC(=O)CCOCCOCCOCCOCCOCCOCCNC(=O)CSc2nonc2/C(=N/O)Nc2ccc(F)c(Br)c2)Cc2cn(nn2)CCCC[C@@H](C(N)=O)N(C)C(=O)[C@@H](Cc2ccc(O)cc2)NC(=O)[C@@H](C)NC1=O", "note": "[Inh-PEG6-wyvay(N-Me)] ({X1-PEG6}-[Pra][dW][dY][dV][dA][dY][NMeLys(N3)]-NH2; triazole 1-7)", "values": [{"measurement": "IC50", "setting": "recombinant human IDO1; [2]", "value": 622, "unit": "nM"}, {"measurement": "IC50", "setting": "recombinant human IDO1; [3]", "value": 622, "unit": "nM"}]}
{"smiles": "N=C(N)NCCC[C@H]1NC(=O)[C@@H](Cc2ccc(O)cc2)NC(=O)[C@@H](Cc2c[nH]c3ccccc23)NC(=O)[C@@H](NC(=O)CCOCCOCCOCCOCCOCCOCCOCCOCCNC(=O)CSc2nonc2/C(=N/O)Nc2ccc(F)c(Br)c2)Cc2cn(nn2)CCCC[C@@H](C(N)=O)NC(=O)[C@@H](Cc2ccc(O)cc2)NC1=O", "note": "[Inh-PEG8-wyry] ({X1-PEG8}-[Pra][dW][dY][dR][dY][Lys(N3)]-NH2; triazole 1-6)", "values": [{"measurement": "IDO1 inhibition potency relative to the small molecule (Inh) alone, in words", "setting": "recombinant human IDO1", "value": "significantly less potent than Inh alone"}]}
{"smiles": "C[C@H]1NC(=O)[C@@H](Cc2ccccc2)NC(=O)[C@@H](CCCNC(=N)N)NC(=O)[C@@H](Cc2ccccc2)NC(=O)[C@@H](NC(=O)COCCOCCOCCNC(=O)CCCCC2SC[C@@H]3NC(=O)N[C@H]23)Cc2cn(nn2)CCCC[C@@H](C(N)=O)NC(=O)[C@@H](CO)NC1=O", "note": "(stereo partly shown) [frfas, Biotin-PEG3-Cy(frfas)] ({Biotinyl(4ξ)-AEEEA}-[Pra][dF][dR][dF][dA][dS][Lys(N3)]-NH2; triazole 1-7)", "values": [{"measurement": "Binding to human IDO1 by ELISA, in words", "setting": "[1]", "value": "weakest binding to IDO1"}]}
{"smiles": "CC(C)C[C@H]1NC(=O)[C@@H](NC(=O)COCCOCCOCCNC(=O)CCCCC2SC[C@H]3NC(=O)N[C@@H]23)Cc2cn(nn2)CCCC[C@@H](C(N)=O)NC(=O)[C@H](Cc2ccc(F)cc2)NC(=O)[C@H](Cc2cn(C)c3ccccc23)NC(=O)[C@@H](Cc2ccccc2)NC1=O", "note": "(stereo partly drawn) [lf(Me-Trp)(F-Phe), Biotin-PEG3-Cy(lf(Me-Trp)(F-Phe))] ({X5-AEEEA}-[Pra][dL][dF][Trp(1-Me)][Phe(4-F)][Lys(N3)]-NH2; triazole 1-6)", "values": [{"measurement": "Binding to human IDO1 by ELISA, in words", "setting": "[1]", "value": "slight decrease in binding affinity"}]}
